According to US20260166061A1, “COMPOUND, RACEMATE OF SAID COMPOUND, SALT OF SAID COMPOUND OR SAID RACEMATE, COMPOSITION, ANTI-INFLAMMATORY AGENT, THERAPEUTIC AGENT FOR DEMENTIA, AND THERAPEUTIC AGENT FOR RETT SYNDROME” (INSTITUTE OF RHEOLOGICAL FUNCTION OF FOOD CO., LTD., priority 2021, published 2026):

Legend:
MeCP2-deficient mice [1] = assay: RTT-like scoring using RTT model mice; format: in vivo; conditions: male MeCP2-deficient mice, 20 ng/g body weight, drinking water, scored weekly from 5 weeks old, FIG. 5
Procedure: (§1) RTT-like symptoms in MeCP2-deficient mice to which KIT-13 was administered were evaluated by RTT-like scoring. For the test, 4-week-old male MeCP2-deficient mice were used. The MeCP2-deficient mice were divided into the following two groups: a KIT-13 administration group (KO-KIT-13, n=14) and a control group (KO, n=15). In the KIT-13 administration group, KIT-13 was administered at 20 ng/g body weight by drinking-water administration in the same manner as in Test Example 3. In the control group, only water was given in the same manner.
The RTT-like scoring was carried out once a week from 5 weeks old, for the following items 1 to 6.
Each mouse was observed after gently placing the mouse on a platform. • 0 points: Same as the wild type. • 1 point: Lower mobility compared to the wild type. (The period of freezing after the first placement on the platform is longer, or the period during which the mouse is standing still is longer.) • 2 points: No spontaneous movement after the placement on the platform. The mouse can move in response to mild stimuli or food placed nearby.
• 0 points: Same as the wild type. • 1 point: Due to a severe reduction in the pelvis, the mouse spreads the hindlimbs apart during walking or running, compared to the wild type. Waddling gait.
Staggering gait. • 2 points: More remarkable abnormality. […]

MeCP2-deficient mice [2] = assay: Evaluation of lifetime using RTT model mice; format: in vivo; conditions: male MeCP2-deficient mice, 20 ng/g body weight, drinking water twice a week
Procedure: For the test, 4-week-old male MeCP2-deficient mice were used. The MeCP2-deficient mice were divided into the following two groups: a KIT-13 administration group (KO-KIT-13, n=14) and a control group (KO, n=28). The body weight of each mouse was measured in advance. For the KIT-13 administration group, KIT-13 was suspended in water by ultrasonication, and administered twice a week by drinking-water administration such that 20 ng/g body weight of KIT-13 was taken. On the other hand, in the control group, only water was given in the same manner.

[3] = system: c57BL6J mice with LPS-induced memory impairment; assay: Water maze test in LPS-induced memory impairment model mice; format: in vivo; conditions: 10 mg/50 kg/day in drinking water for 30 days plus 7 days LPS (250 mg/kg/day), sixth trial, P<0.01, n=5, FIG. 7
Procedure: The effect of KIT-13 on LPS-induced memory impairment in mice was studied. Eight-week-old male c57BL6J mice (5 individuals per group; n=5) were allowed to drink KIT-13 for 30 days at a dose of 10 mg/50 kg/day, and then LPS treatment (250 mg/kg/day) was carried out for 7 days while the mice were similarly allowed to drink KIT-13. Thereafter, a water maze test was carried out for 2 days (three trials per day).
The time required for the mice to reach an escape platform (arrival time) was as illustrated in FIG. 7. Intergroup comparison was carried out using the ANOVA test and the Bonferroni post-hoc test. […] Thus, KIT-13 is effective for improvement of the brain function (cognitive function).

IL-1β gene in BV2 cells = assay: LPS-induced IL-1β gene expression in BV2 cells (PCR); format: cell-based, mice; conditions: 5 μg/mL, 16 hours pre-culture, LPS (1 μg/mL) 2 hours, vs. no addition, β-actin internal standard, FIG. 3
Procedure: Under conditions where sPIs or KIT-13 was present (5 μg/mL), or where neither sPIs nor KIT-13 was present, BV2 cells were cultured for 16 hours in DMEM medium supplemented with 2% fetal bovine serum (FBS). Thereafter, treatment with LPS (1 μg/mL) was carried out for 2 hours. Subsequently, cellular RNA was extracted using the TRIzol (trademark) reagent, and cDNA was prepared from the RNA using a PrimeScript (trademark) 1st strand cDNA Synthesis Kit (manufactured by Takara; 6110). Using TaKaRa Taq (trademark) (manufactured by Takara; R110A), the expression levels of the IL-1β gene and, as an internal standard, the β-actin gene were quantified by polymerase chain reaction (PCR).
The base sequences of the forward primer and the reverse primer for the IL-1ß gene are shown in SEQ ID NOs: 1 and 2, respectively. The base sequences of the forward primer and the reverse primer for the β-actin gene are shown in SEQ ID NOs: 3 and 4, respectively.

IL-1β in BV2 cells = assay: LPS-induced IL-1β protein in BV2 cell culture supernatant (ELISA); format: cell-based, mice; conditions: 5 μg/mL, 16 hours pre-culture, LPS (1 g/mL) 6 hours, n=4, FIG. 2
Procedure: (§2) Under conditions where KIT-2 or KIT-13 was present (5 μg/mL), or where neither KIT-2 nor KIT-13 was present, BV2 cells, which are microglial cells in mice, were cultured for 16 hours in DMEM medium supplemented with 2% fetal bovine serum (FBS). Thereafter, treatment with LPS ([…]) was carried out for 6 hours. Subsequently, nuclear protein was extracted from the cells, and p65 was detected by the Western blotting method. The antibody used for the detection was an anti-p65 NFkB antibody (Ref no. 51-0500, manufactured by Invitrogen).
In addition, 20 μL of the cell culture supernatant after the LPS treatment was subjected to detection of the inflammatory cytokine IL-1ß by the ELISA method using a mouse IL-1β ELISA kit (manufactured by R&D Systems; Catalog No. DY401-05).

[4] = Evaluation of body weight of MeCP2-deficient mice; format: in vivo; conditions: male MeCP2-deficient mice, 20 ng/g body weight, drinking water
Procedure: as §1, with “MeCP2-deficient” for “RTT-like symptoms in MeCP2-deficient”, “subjected to measurement of the body weight every week, and changes in the body weight were evaluated.” for “evaluated by RTT-like scoring.”, “n=21).” for “n=15).”

p65 (NFkB) in BV2 cells = assay: LPS-induced nuclear p65 expression in BV2 cells (Western blotting); format: cell-based, mice; conditions: 5 μg/mL, 16 hours pre-culture, LPS (1 g/mL) 6 hours, 20 μg nuclear protein, n=2, FIG. 1
Procedure: as §2

CCCCC/C=C\C/C=C\C/C=C\C/C=C\CCCC(=O)O[C@H](COCCCCCCCCCCCCCCCCCC)COP(=O)(O)OCCN [KIT-13]
RTT-like score (MeCP2-deficient mice [1]): reduced the RTT-like score | survival rate vs control group (MeCP2-deficient mice [2]; FIG. 4): higher survival rate than the control group | number of days required for the survival rate to decrease to 50% (MeCP2-deficient mice [2]; n=14, control 64.5 days): 90 days | memory (arrival time at escape platform) vs LPS group [3]: showed improvement in the memory | expression of the IL-1β gene (IL-1β gene in BV2 cells): significantly suppressed | LPS-induced expression of the inflammatory cytokine IL-1β (protein per 5000 cells) (IL-1β in BV2 cells): remarkably decreased | toxicity (concluded from body weight) [4]: non-toxic | changes in the body weight vs control group ([4]; weekly measurement, t-test, FIG. 6): No statistical difference | LPS-induced nuclear accumulation of p65 (p65 (NFkB) in BV2 cells): remarkably suppressed
